From ChEMBL document CHEMBL1201861, “Genomics of Drug Sensitity in Cancer screening data, Wellcome Trust Sanger Institute”

Tests used:
Assay in all cases: cells
[1] = system: KG-1; format: functional, cell-based; settings: Homo sapiens;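 also: growth inhibition of KG-1 cells, read out by a cell viability assay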
Description: SANGER: Inhibition of human KG-1 cell growth in a cell viability assay.

[2] = system: CHL-1; format: functional, cell-based, Homo sapiens; settings: Homo sapiens, CHL-1;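 also: cell growth inhibition, read out with a cell viability assay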
Description: SANGER: Inhibition of human CHL-1 cell growth in a cell viability assay.

[3] = system: JEG-3; format: functional, cell-based, Homo sapiens; settings: Homo sapiens, JEG-3;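 also: growth inhibition of human JEG-3 cells, read out with a cell viability assay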
Description: SANGER: Inhibition of human JEG-3 cell growth in a cell viability assay.

[4] = system: HuTu80; format: functional, cell-based, Homo sapiens, HUTU-80; settings: Homo sapiens, HuTu80;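 also: growth inhibition of HuTu80 human cells, determined with a cell viability readout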
Description: SANGER: Inhibition of human HUTU-80 cell growth in a cell viability assay.

[5] = system: TK-10; format: functional, cell-based, Homo sapiens; settings: Homo sapiens, TK-10;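 also: growth inhibition of TK-10 cells, read out in a cell viability assay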
Description: SANGER: Inhibition of human TK10 cell growth in a cell viability assay.

[6] = system: RPMI-8866; format: functional, cell-based; settings: Homo sapiens
Description: SANGER: Inhibition of human RPMI-8866 cell growth in a cell viability assay.

[7] = system: SKG-IIIa; format: functional, cell-based, Homo sapiens; settings: Homo sapiens, SKG-IIIa;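 also: cell growth inhibition, read out with a cell viability assay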
Description: SANGER: Inhibition of human SKG-IIIa cell growth in a cell viability assay.

[8] = system: NCI-H2052; format: functional, cell-based, Homo sapiens; settings: Homo sapiens, NCI-H2052;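 also: growth inhibition of NCI-H2052 cells, read out with a cell viability assay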
Description: SANGER: Inhibition of human NCI-H2052 cell growth in a cell viability assay.

[9] = system: BB30-HNC; format: functional, cell-based, Homo sapiens; settings: Homo sapiens, BB30-HNC;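 also: growth inhibition of the cultured cell line, read out by a cell viability assay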
Description: SANGER: Inhibition of human BB30-HNC cell growth in a cell viability assay.

[10] = system: CAL-72; format: functional, cell-based, Homo sapiens; settings: Homo sapiens, CAL-72;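 also: cell viability assay measuring inhibition of proliferation in the CAL-72 cell line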
Description: SANGER: Inhibition of human CAL-72 cell growth in a cell viability assay.

[11] = system: HL-60; format: functional, cell-based; settings: Homo sapiens;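 also: growth inhibition of human HL-60 cells, read out with a cell viability assay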
Description: SANGER: Inhibition of human HL-60 cell growth in a cell viability assay.

[12] = system: SBC-5; format: functional, cell-based, Homo sapiens; settings: Homo sapiens, SBC-5;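 also: cell viability assay read-out, IC50 is the concentration that inhibits growth of the cells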
Description: SANGER: Inhibition of human SBC-5 cell growth in a cell viability assay.

[13] = system: ONS-76; format: functional, cell-based, Homo sapiens; settings: Homo sapiens, ONS-76;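 also: growth inhibition of human ONS-76 cells, read out with a cell viability assay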
Description: SANGER: Inhibition of human ONS-76 cell growth in a cell viability assay.

[14] = system: MDA-MB-157; format: functional, cell-based, Homo sapiens; settings: Homo sapiens, MDA-MB-157
Description: SANGER: Inhibition of human MDA-MB-157 cell growth in a cell viability assay.

[15] = system: NCI-H1755; format: functional, cell-based, Homo sapiens; settings: Homo sapiens, NCI-H1755;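 also: cell viability readout used to measure growth inhibition of NCI-H1755 cells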
Description: SANGER: Inhibition of human NCI-H1755 cell growth in a cell viability assay.

[16] = system: GAK; format: functional, cell-based, Homo sapiens; settings: Homo sapiens, GAK;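 also: cell growth inhibition read out by a cell viability assay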
Description: SANGER: Inhibition of human GAK cell growth in a cell viability assay.

[17] = system: SK-MEL-24; format: functional, cell-based; settings: Homo sapiens;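 also: growth inhibition read out by a cell viability assay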
Description: SANGER: Inhibition of human SK-MEL-24 cell growth in a cell viability assay.

[18] = system: BFTC-905; format: functional, cell-based, Homo sapiens; settings: Homo sapiens, BFTC-905
Description: SANGER: Inhibition of human BFTC-905 cell growth in a cell viability assay.

[19] = system: MPP-89; format: functional, cell-based, Homo sapiens; settings: Homo sapiens, MPP-89;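 also: growth inhibition of human MPP-89 cells, read out with a cell viability assay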
Description: SANGER: Inhibition of human MPP-89 cell growth in a cell viability assay.

[20] = system: NCI-H2347; format: functional, cell-based, Homo sapiens; settings: Homo sapiens, NCI-H2347;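 also: growth inhibition of the cell line, read out with a cell viability assay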
Description: SANGER: Inhibition of human NCI-H2347 cell growth in a cell viability assay.

[21] = system: MHH-PREB-1; format: functional, cell-based; settings: Homo sapiens;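 also: cell viability assay measuring inhibition of proliferation of human MHH-PREB-1 cells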
Description: SANGER: Inhibition of human MHH-PREB-1 cell growth in a cell viability assay.

[22] = system: NCI-H661; format: functional, cell-based, Homo sapiens; settings: Homo sapiens, NCI-H661;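 also: cell viability assay read-out, IC50 being the concentration that inhibits growth of the cells by half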
Description: SANGER: Inhibition of human NCI-H661 cell growth in a cell viability assay.

[23] = system: 5637; format: functional, cell-based, Homo sapiens; settings: Homo sapiens
Description: SANGER: Inhibition of human 5637 cell growth in a cell viability assay.

[24] = system: HCC1395; format: functional, cell-based, Homo sapiens; settings: Homo sapiens, HCC1395;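 also: growth inhibition of HCC1395 cells, read out by a cell viability assay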
Description: SANGER: Inhibition of human HCC1395 cell growth in a cell viability assay.

[25] = system: TE-10; format: functional, cell-based, Homo sapiens; settings: Homo sapiens, TE-10;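 also: growth inhibition of TE-10 cells, measured by a cell viability assay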
Description: SANGER: Inhibition of human TE-10 cell growth in a cell viability assay.

[26] = system: NCI-H596; format: functional, cell-based, Homo sapiens; settings: Homo sapiens, NCI-H596;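 also: growth inhibition of NCI-H596 cells, read out with a cell viability assay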
Description: SANGER: Inhibition of human NCI-H596 cell growth in a cell viability assay.

[27] = system: HT-144; format: functional, cell-based, Homo sapiens; settings: Homo sapiens, HT-144
Description: SANGER: Inhibition of human HT-144 cell growth in a cell viability assay.

[28] = system: 8-MG-BA; format: functional, cell-based, Homo sapiens; settings: Homo sapiens, 8-MG-BA;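 also: growth inhibition of 8-MG-BA cells, read out with a cell viability assay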
Description: SANGER: Inhibition of human 8-MG-BA cell growth in a cell viability assay.

[29] = system: HCC1187; format: functional, cell-based, Homo sapiens; settings: Homo sapiens, HCC1187;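 also: growth inhibition of HCC1187 cells, read out with a cell viability assay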
Description: SANGER: Inhibition of human HCC1187 cell growth in a cell viability assay.

[30] = system: K5; format: functional, cell-based, Homo sapiens; settings: Homo sapiens, K5
Description: SANGER: Inhibition of human K5 cell growth in a cell viability assay.

[31] = system: BXPC-3; format: functional, cell-based, Homo sapiens; settings: Homo sapiens, BXPC-3;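 also: growth inhibition of human BxPC-3 cells, read out by a cell viability assay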
Description: SANGER: Inhibition of human BxPC-3 cell growth in a cell viability assay.

[32] = system: CTB-1; format: functional, cell-based; settings: Homo sapiens
Description: SANGER: Inhibition of human CTB-1 cell growth in a cell viability assay.

[33] = system: T-24; format: functional, cell-based, Homo sapiens; settings: Homo sapiens, T-24;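 also: growth inhibition of T-24 cells, read out with a cell viability assay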
Description: SANGER: Inhibition of human T-24 cell growth in a cell viability assay.

[34] = system: KU812 cell line; format: functional, cell-based; settings: Homo sapiens;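 also: growth inhibition of KU812 cells, read out with a cell viability assay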
Description: SANGER: Inhibition of human KU812 cell growth in a cell viability assay.

[35] = system: HuCCT-1; format: functional, cell-based, Homo sapiens, HuCCT1; settings: Homo sapiens, HuCCT-1;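 also: growth inhibition of HuCCT-1 cells, read out by a cell viability assay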
Description: SANGER: Inhibition of human HuCCT1 cell growth in a cell viability assay.

[36] = system: IA-LM; format: functional, cell-based, Homo sapiens; settings: Homo sapiens, IA-LM;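 also: cell viability assay measuring growth inhibition of human IA-LM cells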
Description: SANGER: Inhibition of human IA-LM cell growth in a cell viability assay.

[37] = system: D-263MG; format: functional, cell-based, Homo sapiens; settings: Homo sapiens, D-263MG
Description: SANGER: Inhibition of human D-263MG cell growth in a cell viability assay.

[38] = system: OAW-42; format: functional, cell-based, Homo sapiens; settings: Homo sapiens, OAW-42;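 also: growth inhibition of OAW-42 cells, read out with a cell viability assay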
Description: SANGER: Inhibition of human OAW-42 cell growth in a cell viability assay.

[39] = system: NCI-H720; format: functional, cell-based; settings: Homo sapiens;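 also: growth inhibition of human NCI-H720 cells determined by a cell viability assay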
Description: SANGER: Inhibition of human NCI-H720 cell growth in a cell viability assay.

[40] = system: IGROV-1; format: functional, cell-based, Homo sapiens; settings: Homo sapiens, IGROV-1;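 also: reduction of IGROV-1 cell growth, read out with a viability assay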
Description: SANGER: Inhibition of human IGROV-1 cell growth in a cell viability assay.

[41] = system: NCI-H23; format: functional, cell-based, Homo sapiens; settings: Homo sapiens, NCI-H23;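 also: cell viability assay measuring growth inhibition of NCI-H23 cells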
Description: SANGER: Inhibition of human NCI-H23 cell growth in a cell viability assay.

[42] = system: NCI-H1651; format: functional, cell-based, Homo sapiens; settings: Homo sapiens, NCI-H1651;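 also: Read-out is a cell viability assay, with IC50 expressing inhibition of NCI-H1651 cell growth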
Description: SANGER: Inhibition of human NCI-H1651 cell growth in a cell viability assay.

[43] = system: P12-Ichikawa; format: functional, cell-based; settings: Homo sapiens
[44] = system: SNU-387; format: functional, cell-based, Homo sapiens; settings: Homo sapiens, SNU-387
Description: SANGER: Inhibition of human SNU-387 cell growth in a cell viability assay.

[45] = system: SCC-25; format: functional, cell-based, Homo sapiens; settings: Homo sapiens, SCC-25;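 also: growth inhibition of SCC-25 cells, measured with a cell viability assay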
Description: SANGER: Inhibition of human SCC-25 cell growth in a cell viability assay.

[46] = system: CP50-MEL-B; format: functional, cell-based, Homo sapiens; settings: Homo sapiens, CP50-MEL-B;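 also: growth inhibition of the human cell line, measured with a cell viability read-out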
Description: SANGER: Inhibition of human CP50-MEL-B cell growth in a cell viability assay.

[47] = system: HCE-4; format: functional, cell-based, Homo sapiens; settings: Homo sapiens, HCE-4;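 also: cell viability assay measuring inhibition of growth in the human HCE-4 cell line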
Description: SANGER: Inhibition of human HCE-4 cell growth in a cell viability assay.

[48] = system: GI-1; format: functional, cell-based, Homo sapiens; settings: Homo sapiens, GI-1;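 also: growth inhibition of human GI-1 cells, measured with a cell viability readout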
Description: SANGER: Inhibition of human GI-1 cell growth in a cell viability assay.

[49] = system: HOS; format: functional, cell-based, Homo sapiens; settings: Homo sapiens, HOS;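 also: growth inhibition of human HOS cells, read out with a cell viability assay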
Description: SANGER: Inhibition of human HOS cell growth in a cell viability assay.

[50] = system: A 172; format: functional, cell-based, Homo sapiens; settings: Homo sapiens, A 172;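 also: growth inhibition of A172 cells, measured with a cell viability readout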
Description: SANGER: Inhibition of human A172 cell growth in a cell viability assay.

[51] = system: NCI-H747; format: functional, cell-based; settings: Homo sapiens;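 also: growth inhibition of human NCI-H747 cells, read out by a cell viability assay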
Description: SANGER: Inhibition of human NCI-H747 cell growth in a cell viability assay.

CN(c1ncccc1CNc1nc(Nc2ccc3c(c2)CC(=O)N3)ncc1C(F)(F)F)S(C)(=O)=O [PF-00562271]
IC50 [1]: > 2.56 µM
IC50 [2]: > 2.56 µM
IC50 [3]: > 2.56 µM
IC50 [4]: 1.45 µM
IC50 [5]: > 2.56 µM
IC50 [6]: > 2.56 µM
IC50 [7]: > 2.56 µM
IC50 [8]: > 2.56 µM
IC50 [9]: > 2.56 µM
IC50 [10]: > 2.56 µM
IC50 [11]: > 2.56 µM
IC50 [12]: > 2.56 µM
IC50 [13]: > 2.56 µM
IC50 [14]: > 2.56 µM
IC50 [15]: > 2.56 µM
IC50 [16]: > 2.56 µM
IC50 [17]: > 2.56 µM
IC50 [18]: > 2.56 µM
IC50 [19]: > 2.56 µM
IC50 [20]: > 2.56 µM
IC50 [21]: > 2.56 µM
IC50 [22]: > 2.56 µM
IC50 [23]: > 2.56 µM
IC50 [24]: > 2.56 µM
IC50 [25]: > 2.56 µM
IC50 [26]: > 2.56 µM
IC50 [27]: > 2.56 µM
IC50 [28]: > 2.56 µM
IC50 [29]: > 2.56 µM
IC50 [30]: > 2.56 µM
IC50 [31]: 2.35 µM
IC50 [32]: > 2.56 µM
IC50 [33]: > 2.56 µM
IC50 [34]: > 2.56 µM
IC50 [35]: > 2.56 µM
IC50 [36]: > 2.56 µM
IC50 [37]: > 2.56 µM
IC50 [38]: > 2.56 µM
IC50 [39]: > 2.56 µM
IC50 [40]: 0.81 µM
IC50 [41]: > 2.56 µM
IC50 [42]: > 2.56 µM
IC50 [43]: > 2.56 µM
IC50 [44]: 2.53 µM
IC50 [45]: > 2.56 µM
IC50 [46]: > 2.56 µM
IC50 [47]: > 2.56 µM
IC50 [48]: > 2.56 µM
IC50 [49]: > 2.56 µM
IC50 [50]: > 2.56 µM
IC50 [51]: > 2.56 µM
